Measurements as given in article PMC5736767, “A Comparison of Drug Transport in Pulmonary Absorption Models: Isolated Perfused rat Lungs, Respiratory Epithelial Cell Lines and Primary Cell Culture” (Pharmaceutical Research, 2017).
Read-outs that look alike come from different tables or passages of the source.

Columns and labels:
rat lungs = conditions: apparent first-order pulmonary absorption rate constant in rats in vivo, cited from earlier work
[1] = test system: isolated perfused rat lungs; assay: in vitro
Description: (§1) Eight-week old male Wistar rats were obtained from Harlan UK Ltd. (Oxon, Oxfordshire). They were fed with a SDS RM1(E) maintenance diet (Special Diets Services Ltd., Essex). They were maintained at 20–21°C and 45–60% humidity with a 12 h light/dark cycle. All procedures performed on these animals were in accordance with regulations and established guidelines and were reviewed and approved by an Institutional Animal Care and Use Committee or through an ethical review process.
(§2) Rats were sacrificed with a lethal injection of pentobarbital (130 mg/kg body weight). As soon as they were unconscious, rats were secured in a supine position on a board inclined at approximately 45°. A midline incision was made from the neck to the abdomen using a scalpel blade and the rat was exsanguinated by severing the main abdominal vessels. The trachea was exposed and carefully pierced through one wall with a 21 G needle. A 3 cm long cannula made of a polyethylene tubing (PolyE 240, Harvard Apparatus Ltd., Edenbridge, UK) mounted on a blunt 21 G needle was introduced into the trachea. This was securely tied with two suture threads (Silk black braid USP size 4.0, Harvard apparatus Ltd) and a 25 mm Dieffenbach’s bulldog artery clip (Scientific Laboratory Supplies Ltd., Nottingham, UK). The diaphragm was cut open, 0.5 mL of air was administered to the lungs to partly re-inflate them and the rib cage was laterally incised with scissors taking care not to damage the lung tissue.
(§3) After the thymus was removed, the heart was twisted slightly to expose the pulmonary artery and then stretched down using a Halstead’s artery clamp (Scientific Laboratory Supplies). An incision was made and the pulmonary artery was cannulated using a cannula similar to the tracheal one. This was secured with a micro aneurysm clip (Harvard apparatus Ltd). Lungs were perfused using a single pass constant flow rate of 8 mL/min. […] The pericardium was dissected free to allow free efflux of the perfusate and lungs were inflated manually with 1.5 mL air using a 10 mL syringe connected to the intratracheal cannula. As soon as the tissue blanched, the lungs were removed carefully from the chest cavity while maintaining the perfusion and a semi micro Rexaloy clamp (Fisher Scientific, Loughborough, UK) was used to suspend the lungs vertically above a funnel and beaker.
(§4) After isolation, the lungs were allowed to stabilize for 1–2 min. The syringe attached to the intratracheal cannula was then disconnected and 100 μL of the test solutions were instilled into the airways using a Hamilton microsyringe. Lungs were re-inflated with 1.5 mL of air and sampling was performed by collecting the effluent solution dripping from the left atrium at different time intervals for 90 min. Lung viability was assessed by visual inspection for any sign of oedema as well as by the profile of mannitol airway to perfusate transfer.
(§5) The cumulative percentage of drug transferred from the airways to the perfusate in 90 min was calculated as the fraction of the administered dose recovered in the perfusate. […] The apparent first-order absorption rate constant (KaIPL) was calculated as follows: KaIPL=ln2/t1/2abs
(§6) Absorption data were collected using 4 or 5 IPL preparations.

[2] = Absorptive (A to B) permeability in normal human bronchial epithelial (NHBE) cell layers; assay type: in vitro ADME; conditions: human, apical to basolateral, 10 μM, pH 7.4, 2 h, mean ± SD (n = 3, n = 18 for mannitol)
Description: (§7) NHBE were cultured in a cell culture flask using the BEGM bullet kit provided by the supplier until reaching 70–80% confluence. […] After 24 h, cells were cultured at an air interface. Cell layers were used for transport studies after 14 d in culture.

in vitro [3] = conditions: male, Wistar, rat, pH 7.4
Description: as §1, §2, §3, §4, §5, §6

[4] = Absorptive (A to B) permeability in Calu-3 cell layers; conditions: human
in vitro [5] = conditions: human, pH 7.4
[6] = Table I panel of test compounds; source not stated; cited from earlier work
NHBE cell layers = assay: Absorptive (A to B) permeability in normal human bronchial epithelial (NHBE) cell layers; assay type: in vitro ADME
Description: as §7

16HBE14o- cell layers = conditions: pH 7.4
Calu-3 cell layers = assay: Absorptive (A to B) permeability in Calu-3 cell layers; conditions: Calu-3, apical to basolateral, 10 μM, pH 7.4, 2 h; mean ± SEM (n = 6, n = 36 for mannitol)
[7] = Absorptive (A to B) permeability in 16HBE14o- cell layers; conditions: human, pH 7.4
[8] = apparent first-order absorption rate constant = ln2/t1/2 abs, intratracheal instillation 100 μL, mean ± SD
[9] = male, Wistar, rat, 90 min, pH 7.4
[10] = pH 7.4, Papp, Calu-3, apical to basolateral, 10 μM, pH 7.4, 2 h, mean ± SEM (n = 6, n = 36 for mannitol)

Row | Compound | Ka in vivo (rat lungs; ref [22]) | % transferred to the perfusate in 90 min [1, 9] [%] | Papp at 2 h, 10 μM [2] [×10⁻⁶ cm/s] | KaIPL ([1]; male, Wistar, rat, pH 7.4) [min⁻¹] | Papp at 2 h, 10 μM [4, 10] [×10⁻⁶ cm/s] | Papp at 2 h, 10 μM (in vitro [5]) [×10⁻⁶ cm/s] | half-life (in vitro [3]) [min] | also measured
1 | CN(C)CCCN1c2ccccc2CCc2ccccc21 [Imipramine] | 0.53 ^(1) min^−1 | 58 ± 9 |  |  |  |  |  | KaIPL [1, 8]: 0.071 ± 0.021 min⁻¹
2 | CC(C)NCC(O)COc1cccc2ccccc12 (centres unmarked) [Propranolol] |  | 47 ± 9 | 16.8 ± 3 | 0.098 ± 0.016 | 7 ± 0.4 | 17.3 ± 0.8 |  | half-life (in vitro [3]; 100 μL): 7 ± 1 min
3 | COc1ccc(CC(C)NCC(O)c2ccc(O)c(NC=O)c2)cc1 (centres unmarked) [Formoterol] | 0.19 ^(1) min^−1 |  |  |  |  |  |  | Log P [6]: 1.1; half-life (in vitro [3]; 100 μL): 30 ± 2 min; KaIPL [1, 8]: 0.023 ± 0.002 min⁻¹; % transferred to the perfusate in 90 min ([1]; cumulative fraction of administered dose recovered in perfusate at 90 min, mean ± SD): 46 ± 7%; Papp at 2 h, 10 μM ([4]; pH 7.4): 6.4 ± 0.3 ×10⁻⁶ cm/s
4 | Dextran 10 K |  |  |  |  |  |  |  | Papp (NHBE cell layers; apical to basolateral, 10 μM, pH 7.4, 2 h, mean ± SD (n = 3, n = 18 for mannitol)): 0.7 ± 0.1 10^−6 cm/s; Ka in vivo (rat lungs; ref [23]): 0.00007 ^(2) min^−1; KaIPL [1]: 0.017 ± 0.002 min⁻¹; t1/2 abs ([1]; rat): 41 ± 6 min; Papp (16HBE14o- cell layers): 1 ± 0.1 ×10⁻⁶ cm/s; Papp (Calu-3 cell layers): 0.2 ± 0.0 10^−6 cm/s
5 | COCCc1ccc(OCC(O)CNC(C)C)cc1 (centres unmarked) [Metoprolol] |  | 65 ± 4 | 11.3 ± 0.7 | 0.260 ± 0.050 | 10.3 | 24.5 ± 2.5 | 3 ± 1 | 
6 | CC(C)(C)NCC(O)c1cc(O)cc(O)c1 (centres unmarked) [Terbutaline] | 0.06 ^(1) min^−1 | 52 ± 12 | 13.8 ± 0.8 | 0.037 ± 0.006 | 7.3 ± 0.4 | 19.3 ± 2 | 19 ± 3 | Log P [6]: 0.1
7 | OC[C@@H](O)[C@@H](O)[C@H](O)[C@H](O)CO [Mannitol] |  | 51 ± 4 | 1.6 ± 0.5 | 0.029 ± 0.005 | 0.5 ± 0.1 |  | 25 ± 5 | Papp (NHBE cell layers): 1.6 ± 0.5 x 10^−6, cm s^−1; Papp at 2 h, 10 μM [7]: 3.7 ± 0.5 ×10⁻⁶ cm/s; Ka in vivo (rat lungs; ref [24]): 0.011 ^(3) min^−1; Papp at 2 h, 10 μM ([4]; pH 7.4, Papp, Calu-3, as stated in text): 0.48 ± 0.06 ×10⁻⁶ cm/s
